According to US4029780A, “3-Piperazinyl 1,2,4-benzothiadiazine 1,1-dioxide derivatives their compositions and method of use” (Dainippon Pharmaceutical Co., Ltd., priority 1974, dated 1977):

Columns and labels:
[1] = literature, cited from earlier work
[2] = literature; cited from earlier work
[3] = test system: Spontaneously hypertensive male rats; experiment: Antihypertensive activity in spontaneously hypertensive rats (oral, 10 successive days); assay type: in vivo, rat; settings: for Fall in blood pressure / Blood pressure: 10 mg/kg/day p.o.
Description: Spontaneously hypertensive male rats [SHR, Jap. Circ. J. 27, 282-93 (1963)] being 18-23 weeks of age and having systolic blood pressure levels of 170-190 mmHg were used. The test compounds were each suspended in a 0.5% aqueous tragacanth solution and administered orally in a dose of 10 mg/kg/day by stomach tube to SHR once a day for 10 successive days. The blood pressure of conscious SHR was measured prior to dosing and 5 hours after administration. It was also measured once daily over a period of 7 days after the end of the treatment period. The measurement of the blood pressure was made by a plethysmographtail method [Jap. Circ. J. 27, 282-93 (1963)].

Male Wistar rats [4] = experiment: Effect on urine volume and electrolyte excretion; assay type: in vivo, rat; settings: for Cl- / K+ / Na+ / Na+/K+: urinary excretion over 5 hours; for Urine volume: 5 hours
Description: Male Wistar rats weighing 220 to 260 g were used. Each test compound was suspended in a solution of tragacanth dissolved in a concentration of 0.5% in a 0.9% saline solution so that the volume of the resulting suspension to be administered would be always 25 ml/Kg. The test compounds were administered orally by the stomach tube to the animals at the prescribed doses. The animals were then placed in a metabolic cage and the urine was collected over a period of 5 hours. The total amount of sodium, potassium and chloride excreted was determined by Auto-Analyzer, made by Technicon Instruments Corporation.

Male Wistar rats [5] = experiment: Effect on blood glucose (a), oral; settings: 300 mg/kg p.o.; for Effect on blood glucose level: rats
Description: (a) Male Wistar rats weighing 190-210 g were used. Each test compound was suspended in a concentration of 150 mg/ml in a 0.5% aqueous tragacanth solution and orally administered at a dose of 300 mg/kg by the stomach tube.

Male Wistar rats [6] = experiment: Effect on blood glucose (b), intraperitoneal; settings: 300 mg/kg i.p.; for Effect on blood glucose level: rats
Description: (b) Male Wistar rats weighing 260-285 g were used. […] 4 ml/kg of the above solution of each test compound was intraperitoneally administered to each animal. The blood samples were taken prior to dosing and 1, 3 and 6 hours after the administration and the plasma glucose levels were determined in a similar manner to that described in (a).

[7] = Toxicity (LD50), JCL-SD rats; settings: rat, in vivo
From the text: (§1) Male and female JCL-ICR strain mice, weighing 20-30 g (each group: 8 mice), and male and female JCL-SD strain rats, weighing 150-250 g (each group: 8 rats) were used.

[8] = Toxicity (LD50), JCL-ICR mice; settings: mouse, in vivo
From the text: as §1

[9] = test system: Spontaneously hypertensive rats; experiment: Glucose tolerance test; settings: 300 mg/kg p.o. once a day, 22 days; 1.25 g/kg oral glucose
Description: Spontaneously hypertensive rats weighing 360 to 400 g were used. Each of the test compounds was suspended in a 0.5% aqueous tragacanth solution, and orally administered to the animals at a dose of 300 mg/kg once a day for 22 consecutive days. The control group was given only the 0.5% aqueous tragacanth solution. After the final administration, the animals were caused to fast for 20 hours, and subjected to a glucose tolerance test by an oral application of 1.25 g/kg of glucose.

[10] = day 0, 5 hours after administration
[11] = day 2, 5 hours after administration
[12] = day 4, 5 hours after administration
[13] = day 6, 5 hours after administration
[14] = day 8, 5 hours after administration
[15] = day 10, 24 hours after the final treatment
[16] = day 14, 120 hours after the final treatment
[17] = iv, female, dissolved with stoichiometric NaOH, 95% confidence limits in parentheses
[18] = iv, male, dissolved with stoichiometric NaOH, 95% confidence limits in parentheses
[19] = po, female, suspended in 0.5% tragacanth
[20] = po, male, suspended in 0.5% tragacanth
[21] = sc, female, dissolved with stoichiometric NaOH
[22] = sc, male, dissolved with stoichiometric NaOH

In the case of `O=S1(=O)NC(N2CCOCC2)=Nc2cc(C(F)(F)F)ccc21` [3-morpholino-6-trifluoromethyl-2H-1,2,4-benzothiadiazine 1,1-dioxide], the Antihypertensive activity [1] is listed as “no antihypertensive activity”.
In the case of `NC1=Nc2cc(C(F)(F)F)ccc2S(=O)(=O)N1` [6-trifluoromethyl-3-amino-2H-1,2,4-benzothiadiazine 1,1-dioxide], the Antihypertensive activity [1] is given as “substantially the same degree of antihypertensive activity as diazoxide” and the Antidiuretic activity [2] is given as “antidiuretic activity similar to that of diazoxide”.
With `COc1cc2c(cc1OC)S(=O)(=O)NC(N1CCN(C)CC1)=N2` [Compound 1, 6,7-Dimethoxy-3-(4-methyl-1-piperazinyl)-2H-1,2,4-benzothiadiazine 1,1-dioxide] the “Fall in blood pressure” value [3] was “did not cause any significant fall in blood pressure”, the Blood pressure [3, 10] was 188 mm Hg and the Blood pressure ([3]; day 0, prior to dosing (0)) was 189 mm Hg. The Blood pressure [3, 11] was 186 mm Hg, the Blood pressure ([3]; day 2, prior to dosing (0)) was 187 mm Hg and the Blood pressure [3, 12] was 184 mm Hg. For the same compound, the Blood pressure ([3]; day 4, prior to dosing (0)) was 185 mm Hg, the Blood pressure [3, 13] was 184 mm Hg and the Blood pressure ([3]; day 6, prior to dosing (0)) was 187 mm Hg. The Blood pressure [3, 14] was 187 mm Hg, the Blood pressure ([3]; day 8, prior to dosing (0)) was 189 mm Hg and the Blood pressure [3, 15] was 187 mm Hg. The Blood pressure [3, 16] was 188 mm Hg and the Antihypertensive activity [1] was “no antihypertensive activity”.
For `O=S1(=O)NC(N2CCCCC2)=Nc2ccccc21` [Compound 2, 3-Piperidino-2H-1,2,4-benzothiadiazine 1,1-dioxide], the “Fall in blood pressure” value [3] was “did not cause any significant fall in blood pressure”, the Blood pressure [3, 10] was 180 mm Hg and the Blood pressure ([3]; day 0, prior to dosing (0)) was 187 mm Hg. The Blood pressure [3, 11] was 181 mm Hg, the Blood pressure ([3]; day 2, prior to dosing (0)) was 186 mm Hg and the Blood pressure [3, 12] was 183 mm Hg. For the same compound, the Blood pressure ([3]; day 4, prior to dosing (0)) was 182 mm Hg, the Blood pressure [3, 13] was 186 mm Hg and the Blood pressure ([3]; day 6, prior to dosing (0)) was 186 mm Hg. It also gave a Blood pressure [3, 14] of 183 mm Hg, a Blood pressure ([3]; day 8, prior to dosing (0)) of 186 mm Hg and a Blood pressure [3, 15] of 184 mm Hg. The Blood pressure [3, 16] was 182 mm Hg, the “Antihypertensive activity in oral administration” value ([3]; oral) was “does not show antihypertensive activity” and the “Antihypertensive activity in intravenous administration” value ([1]; intravenous) was “slight antihypertensive activity”.
With `NS(=O)(=O)c1cc2c(cc1Cl)NCNS2(=O)=O` [Compound 4, Hydrochlorothiazide] the Blood pressure [3, 10] was 168 mm Hg, the Blood pressure ([3]; day 0, prior to dosing (0)) was 172 mm Hg and the Blood pressure [3, 11] was 152 mm Hg. It also gave a Blood pressure ([3]; day 2, prior to dosing (0)) of 163 mm Hg, a Blood pressure [3, 12] of 150 mm Hg and a Blood pressure ([3]; day 4, prior to dosing (0)) of 158 mm Hg. The Blood pressure [3, 13] was 138 mm Hg, the Blood pressure ([3]; day 6, prior to dosing (0)) was 151 mm Hg and the Blood pressure [3, 14] was 140 mm Hg. It also gave a Blood pressure ([3]; day 8, prior to dosing (0)) of 152 mm Hg, a Blood pressure [3, 15] of 153 mm Hg and a Blood pressure [3, 16] of 165 mm Hg. The “Change in Na+/K+” value (Male Wistar rats [4]; 1 mg/kg p.o.) was “marked increase”, the Cl- (Male Wistar rats [4]; 1.0 mg/kg p.o.) was 1.38 mEq and the Blood glucose (Male Wistar rats [5]; 0 hr (prior to dosing)) was 104 mg/dL. It also gave a Blood glucose (Male Wistar rats [5]; 1 hr) of 114 mg/dL, a Blood glucose (Male Wistar rats [5]; 3 hr) of 111 mg/dL and a Blood glucose (Male Wistar rats [5]; 6 hr) of 112 mg/dL. The Blood glucose (Male Wistar rats [5]; 10 hr) was 113 mg/dL, the Blood glucose (Male Wistar rats [6]; 0 hr (prior to dosing)) was 100 mg/dL and the Blood glucose (Male Wistar rats [6]; 1 hr) was 257 mg/dL. For the same compound, the Blood glucose (Male Wistar rats [6]; 3 hr) was 220 mg/dL and the Blood glucose (Male Wistar rats [6]; 6 hr) was 144 mg/dL.
With `CN1CCN(C2=Nc3ccc(Cl)cc3S(=O)(=O)N2)CC1` [Compound A, 7-chloro-3-(4-methyl-1-piperazinyl)-2H-1,2,4-benzothiadiazine 1,1-dioxide] the Blood pressure [3, 10] was 172 mm Hg, the Blood pressure ([3]; day 0, prior to dosing (0)) was 172 mm Hg and the Blood pressure [3, 11] was 155 mm Hg. For the same compound, the Blood pressure ([3]; day 2, prior to dosing (0)) was 167 mm Hg, the Blood pressure [3, 12] was 151 mm Hg and the Blood pressure ([3]; day 4, prior to dosing (0)) was 158 mm Hg. The Blood pressure [3, 13] was 131 mm Hg, the Blood pressure ([3]; day 6, prior to dosing (0)) was 144 mm Hg and the Blood pressure [3, 14] was 135 mm Hg. It also gave a Blood pressure ([3]; day 8, prior to dosing (0)) of 143 mm Hg, a Blood pressure [3, 15] of 139 mm Hg and a Blood pressure [3, 16] of 165 mm Hg. For the same compound, the “Change in Na+/K+” value (Male Wistar rats [4]; 100 mg/kg p.o.) was “some increase”, the “Change in electrolyte excretion” value (Male Wistar rats [4]; 100 mg/kg p.o.) was “no significant change” and the “Change in urine volume” value (Male Wistar rats [4]; 100 mg/kg p.o.) was “no significant change”. For the same compound, the Urine volume (Male Wistar rats [4]; 100 mg/kg p.o.) was 3.58 mL, the Cl- (Male Wistar rats [4]; 100 mg/kg p.o.) was 0.90 mEq and the “K+” value (Male Wistar rats [4]; 100 mg/kg p.o.) was 0.40 mEq. For the same compound, the “Na+” value (Male Wistar rats [4]; 100 mg/kg p.o.) was 0.78 mEq, the “Na+/K+” value (Male Wistar rats [4]; 100 mg/kg p.o.) was 1.93 and the LD50 at 168 h [7, 17] was 740 mg/kg. The LD50 at 168 h [7, 18] was 551 mg/kg, the LD50 at 168 h [7, 19] was > 5000 mg/kg and the LD50 at 168 h [7, 20] was > 5000 mg/kg. The LD50 at 168 h [7, 21] was > 1000 mg/kg, the LD50 at 168 h [7, 22] was > 1000 mg/kg and the LD50 at 168 h [8, 17] was 242 mg/kg. The LD50 at 168 h [8, 18] was 267 mg/kg, the LD50 at 168 h [8, 19] was > 5000 mg/kg and the LD50 at 168 h [8, 20] was > 5000 mg/kg. The LD50 at 168 h [8, 21] was > 2410 mg/kg, the LD50 at 168 h [8, 22] was > 2410 mg/kg and the “Blood glucose levels after application of glucose, compared with control group” value [9] was “same glucose tolerance pattern as the control group”. For the same compound, the Glucose tolerance [9] was “no abnormality was observed in glucose tolerance”, the Blood glucose (Male Wistar rats [5]; 0 hr (prior to dosing)) was 105 mg/dL and the Blood glucose (Male Wistar rats [5]; 1 hr) was 105 mg/dL. The Blood glucose (Male Wistar rats [5]; 3 hr) was 107 mg/dL, the Blood glucose (Male Wistar rats [5]; 6 hr) was 103 mg/dL and the Blood glucose (Male Wistar rats [5]; 10 hr) was 110 mg/dL. For the same compound, the “Effect on blood glucose level” value (Male Wistar rats [5]) was “substantially no effect”, the Blood glucose (Male Wistar rats [6]; 0 hr (prior to dosing)) was 94 mg/dL and the Blood glucose (Male Wistar rats [6]; 1 hr) was 102 mg/dL. The Blood glucose (Male Wistar rats [6]; 3 hr) was 103 mg/dL, the Blood glucose (Male Wistar rats [6]; 6 hr) was 111 mg/dL and the “Effect on blood glucose level” value (Male Wistar rats [6]) was “substantially no effect”.
For `CN1CCN(C2=Nc3ccccc3S(=O)(=O)N2)CC1` [Compound B, 3-(4-methyl-1-piperazinyl)-2H-1,2,4-benzothiadiazine 1,1-dioxide], the Blood pressure [3, 10] was 167 mm Hg, the Blood pressure ([3]; day 0, prior to dosing (0)) was 169 mm Hg and the Blood pressure [3, 11] was 161 mm Hg. The Blood pressure ([3]; day 2, prior to dosing (0)) was 167 mm Hg, the Blood pressure [3, 12] was 154 mm Hg and the Blood pressure ([3]; day 4, prior to dosing (0)) was 159 mm Hg. It also gave a Blood pressure [3, 13] of 144 mm Hg, a Blood pressure ([3]; day 6, prior to dosing (0)) of 160 mm Hg and a Blood pressure [3, 14] of 136 mm Hg. It also gave a Blood pressure ([3]; day 8, prior to dosing (0)) of 149 mm Hg, a Blood pressure [3, 15] of 146 mm Hg and a Blood pressure [3, 16] of 166 mm Hg. The “Change in electrolyte excretion” value (Male Wistar rats [4]; 100 mg/kg p.o.) was “no significant change”, the “Change in urine volume” value (Male Wistar rats [4]; 100 mg/kg p.o.) was “no significant change” and the Urine volume (Male Wistar rats [4]; 100 mg/kg p.o.) was 3.06 mL. The Cl- (Male Wistar rats [4]; 100 mg/kg p.o.) was 0.89 mEq, the “K+” value (Male Wistar rats [4]; 100 mg/kg p.o.) was 0.48 mEq and the “Na+” value (Male Wistar rats [4]; 100 mg/kg p.o.) was 0.64 mEq. The “Na+/K+” value (Male Wistar rats [4]; 100 mg/kg p.o.) was 1.34, the Blood glucose (Male Wistar rats [5]; 0 hr (prior to dosing)) was 106 mg/dL and the Blood glucose (Male Wistar rats [5]; 1 hr) was 107 mg/dL. It also gave a Blood glucose (Male Wistar rats [5]; 3 hr) of 109 mg/dL, a Blood glucose (Male Wistar rats [5]; 6 hr) of 104 mg/dL and a Blood glucose (Male Wistar rats [5]; 10 hr) of 110 mg/dL. For the same compound, the “Effect on blood glucose level” value (Male Wistar rats [5]) was “substantially no effect”, the Blood glucose (Male Wistar rats [6]; 0 hr (prior to dosing)) was 100 mg/dL and the Blood glucose (Male Wistar rats [6]; 1 hr) was 111 mg/dL. For the same compound, the Blood glucose (Male Wistar rats [6]; 3 hr) was 115 mg/dL, the Blood glucose (Male Wistar rats [6]; 6 hr) was 125 mg/dL and the “Effect on blood glucose level” value (Male Wistar rats [6]) was “substantially no effect”.
